Data reported in PMC7023064, “Design, Synthesis, and Evaluation of Novel 2-Methoxyestradiol Derivatives as Apoptotic Inducers through an Intrinsic Apoptosis Pathway” (Biomolecules, 2020).
Like-named read-outs stand apart in the source and are kept apart here.

Columns and labels:
[1] = test system: human breast cancer MDA-MB-231 cell lines; test: MTT cytotoxicity assay, MDA-MB-231; type: cell-based; conditions: mean ± SD of three experiments
Method: (§1) Human breast adenocarcinoma MCF-7 cell lines, human breast cancer MDA-MB-231 cell lines, and the normal human liver L-O2 cell lines were provided by Nanjing KeyGen Biotech Co. Ltd. (Nanjing, China). MCF-7 cells were cultured in a base medium (90% RPMI-1640 and 10% FBS) at 37 °C, 5% CO2 and a saturated humidity atmosphere. MDA-MB-231 cells were cultured in a base medium (90% […] and 10% FBS) at 37 °C, 5% CO2 and a saturated humidity atmosphere. L-O2 cells were cultured in a base medium (90% DMEM and 10% FBS) at 37 °C, 5% CO2 and a saturated humidity atmosphere.
(§2) The cytotoxicity of the tested compounds was determined using the 3-(4,5-dimethyl-2-thiazolyl)-2,5-diphenyl-2-H-tetrazolium bromide (MTT) assay. Cells were seeded in 96-well plates and incubated in a 5% CO2 incubator at 37 °C. When the cells adhered, compounds at different concentrations were added to every well. After incubation for another 72 h, MTT solution (5 mg/mL) was added into each well and cells were incubated for an additional 4 h. The viable cells were stained with MTT and scanned with an electrophotometer at 570 nm. Each concentration treatment was done in triplicate wells. The half maximal inhibitory concentration (IC50) values were estimated by fitting the inhibition data to a dose-dependent curve using a logistic derivative equation.

[2] = test system: human breast adenocarcinoma MCF-7 cell lines; test: MTT cytotoxicity assay, MCF-7; type: cell-based
Method: as §1, §2

[3] = test system: normal human liver L-O2 cell lines; test: MTT cytotoxicity assay, L-O2; type: cell-based; conditions: mean ± SD of three experiments, No = No inhibition detected
Method: as §1, §2

[4] = test system: MCF-7 and MDA-MB-231 cell lines; test: MTT assay, summary over tested tumor cells; type: cell-based, human; conditions: for IC50: Homo sapiens, MCF-7 and MDA-MB-231, read-out: IC50, anti-proliferative activity against tested tumor cells
Method: as §1, §2

[5] = MTT, 72 h, mean ± SD of three experiments, read-out: IC50 MCF-7
[6] = Table 2, mean ± SD of three experiments, read-out: IC50 for MCF-7
[7] = Homo sapiens, MCF7, MTT, 72 h, mean ± SD of three experiments, read-out: IC50 MCF-7
[8] = Homo sapiens, MCF7, Table 2, mean ± SD of three experiments, read-out: IC50 for MCF-7
[9] = Homo sapiens, MCF7, pIC50 = −log(IC50), read-out: pIC50 for MCF-7 (converted)

Molecule	IC50 ([1]; 72 h) [µM]	IC50 [2, 5] [µM]	IC50 [2, 6] [µM]	pIC50 for MCF-7 ([2]; pIC50 = −log(IC50))	IC50 ([3]; 72 h) [µM]	IC50 ([1]; Homo sapiens, MDA-MB-231, 72 h) [µM]	IC50 [2, 7] [µM]	IC50 [2, 8] [µM]	IC50 [2, 9] [µM]	IC50 [4] [µM]	IC50 ([3]; Homo sapiens, L02, 72 h) [µM]	melting point [°C]	IC50 L-O2 ([3]; 72 h)	selectivity towards cancerous cell lines vs healthy cell line ([4]; MCF-7 and MDA-MB-231 vs L-O2)
3-[8-(5-Methyl-Uracil-3-yl)-Octyloxy]-2-Methoxy-Estra-1,3,5(10)-Triene-17β-ol [Compound 23a]	12.7 ± 0.22	8.75 ± 0.22	8.75 ± 0.22	5.06	25.5 ± 1.86									
17 β-[8-(5-Methyl-Uracil-3-yl)-Octyloxy]-2-Methoxy-Estra-1,3,5(10)-Triene-3-ol [Compound 15a]	19.3 ± 1.54	12.1 ± 0.45	12.1 ± 0.45	4.92	52.6 ± 1.82									
COc1cc2c(cc1OCCCCCCCCn1c(=O)ccn([C@@H]3O[C@H](CO)[C@@H](O)[C@H]3O)c1=O)CC[C@@H]1[C@@H]2CC[C@]2(C)[C@@H](O)CC[C@@H]12 [Compound 19, 3-[8-(1-β-D-Ribofuranosyluracil-3-yl)-Octyloxy]-2-Methoxy-Estra-1,3,5(10)-Triene-17β-ol]						10.44 ± 0.07	7.87 ± 0.42	7.87 ± 0.42	7.94	3.89 to 16.7	32.8 ± 0.65	93 to 95		
COc1cc2c(cc1O)CC[C@@H]1[C@@H]2CC[C@]2(C)[C@@H](OCCCCCCn3cc(C)c(=O)n(CCCCCCO[C@H]4CC[C@H]5[C@@H]6CCc7cc(O)c(OC)cc7[C@H]6CC[C@]45C)c3=O)CC[C@@H]12 [Compound 13b, 1,3-Bis-{6-[2-Methoxy-3-Hydroxy-Estra-1,3,5(10)-Triene-17β-yl-oxy]-Hexyl}-5-Methyl-Uracil]						> 100	> 100	> 100	> 100			84 to 86	No	
COc1cc2c(cc1O)CC[C@@H]1[C@@H]2CC[C@]2(C)[C@@H](OCCCCCCCCn3cc(C)c(=O)n(CCCCCCCCO[C@H]4CC[C@H]5[C@@H]6CCc7cc(O)c(OC)cc7[C@H]6CC[C@]45C)c3=O)CC[C@@H]12 [Compound 15b, 1,3-bis-{8-[2-Methoxy-3-Hydroxy-Estra-1,3,5(10)-Triene-17β-yl-oxy]-Octyl}-5-Methyl-Uracil]						> 100	> 100	> 100	> 100			73 to 75	No	
COc1cc2c(cc1OCCCCCCn1ccc(=O)n(CCCCCCOc3cc4c(cc3OC)[C@H]3CC[C@]5(C)[C@@H](O)CC[C@H]5[C@@H]3CC4)c1=O)CC[C@@H]1[C@@H]2CC[C@]2(C)[C@@H](O)CC[C@@H]12 [Compound 20b, 1,3-Bis-{6-[2-Methoxy-17β-Hydroxy-Estra-1,3,5(10)-Triene-3-yl-Oxy]-Hexyl}-Uracil]						> 100	> 100	> 100	> 100			93 to 94	No	
COc1cc2c(cc1O)CC[C@@H]1[C@@H]2CC[C@]2(C)[C@@H](OCCCCCCn3ccc(=O)n(CCCCCCO[C@H]4CC[C@H]5[C@@H]6CCc7cc(O)c(OC)cc7[C@H]6CC[C@]45C)c3=O)CC[C@@H]12 [Compound 12b, 1,3-bis-{6-[2-Methoxy-3-Hydroxy-Estra-1,3,5(10)-Triene-17β-yl-oxy]-Hexyl}-Uracil]						> 100	> 100	> 100	> 100			71 to 73	No ^b	
COc1cc2c(cc1OCCCCCCn1c(=O)ccn([C@@H]3O[C@H](CO)[C@@H](O)[C@H]3O)c1=O)CC[C@@H]1[C@@H]2CC[C@]2(C)[C@@H](O)CC[C@@H]12 [Compound 18, 3-[6-(1-β-D-Ribofuranosyluracil-3-yl)-Hexyloxy]-2-Methoxy-Estra-1,3,5(10)-Triene-17β-ol]						3.89 ± 0.36	6.21 ± 0.37	6.21 ± 0.37	6.17	3.89 to 16.7	21.3 ± 0.66	99 to 100		
COc1cc2c(cc1O)CC[C@@H]1[C@@H]2CC[C@]2(C)[C@@H](O)CC[C@@H]12 [Compound 1, 2-Methoxyestradiol]						1.86 ± 0.02	1.51 ± 0.04	1.51 ± 0.04	1.51		4.7 ± 0.45			
COc1cc2c(cc1OCCCCCCCCn1ccc(=O)n(CCCCCCCCOc3cc4c(cc3OC)[C@H]3CC[C@]5(C)[C@@H](O)CC[C@H]5[C@@H]3CC4)c1=O)CC[C@@H]1[C@@H]2CC[C@]2(C)[C@@H](O)CC[C@@H]12 [Compound 22b, 1,3-Bis-{8-[2-Methoxy-17β-Hydroxy-Estra-1,3,5(10)-Triene-3-yl-Oxy]-Octyl}-Uracil]						> 100	> 100	> 100	> 100			74 to 76	No	
3-[6-(5-Methyl-Uracil-3-yl)-Hexyloxy]-2-Methoxy-Estra-1,3,5(10)-Triene-17β-ol [Compound 21a]	7.34 ± 0.56	9.97 ± 0.39	9.97 ± 0.39	5.00	28.2 ± 0.57									
O=c1[nH]cc(F)c(=O)[nH]1 [Compound 5-FU, reference compound]	61.9 ± 2.23	8.87 ± 0.59			> 100									
COc1cc2c(cc1O)CC[C@@H]1[C@@H]2CC[C@]2(C)[C@@H](OCCCCCCn3c(=O)ccn([C@@H]4O[C@H](CO)[C@@H](O)[C@H]4O)c3=O)CC[C@@H]12 [Compound 10, 17 β-[6-(1-β-D-Ribofuranosyluracil-3-yl)-Hexyloxy]-2-Methoxy-Estra-1,3,5(10)-Triene-3-ol]						13.2 ± 1.09	16.7 ± 0.3	16.7 ± 0.3	16.6	3.89 to 16.7	35.2 ± 0.42	79 to 81		
3-[8-(Uracil-3-yl)-Octyloxy]-2-Methoxy-Estra-1,3,5(10)-Triene-17β-ol [Compound 22a]	9.58 ± 0.98	10.3 ± 0.37	10.3 ± 0.37	4.99	25.9 ± 1.82									
COc1cc2c(cc1OCCCCCCCCn1cc(C)c(=O)n(CCCCCCCCOc3cc4c(cc3OC)[C@H]3CC[C@]5(C)[C@@H](O)CC[C@H]5[C@@H]3CC4)c1=O)CC[C@@H]1[C@@H]2CC[C@]2(C)[C@@H](O)CC[C@@H]12 [Compound 23b, 1,3-bis-{8-[2-Methoxy-17β-Hydroxy-Estra-1,3,5(10)-Triene-3-yl-Oxy]-octyl}-5-Methyl-Uracil]						> 100	> 100	> 100	> 100			75 to 76	No	
17 β-[8-(Uracil-3-yl)-Octyloxy]-2-Methoxy-Estra-1,3,5(10)-Triene-3-ol [Compound 14a]	8 ± 0.41	9.22 ± 0.21	9.22 ± 0.21	5.04	17.5 ± 0.69									
3-[6-(Uracil-3-yl)-Hexyloxy]-2-Methoxy-Estra-1,3,5(10)-Triene-17β-ol [Compound 20a]	14 ± 1.69	17.9 ± 0.22	17.9 ± 0.22	4.75	38.5 ± 1.87									
17 β-[6-(5-Methyl-Uracil-3-yl)-Hexyloxy]-2-Methoxy-Estra-1,3,5(10)-Triene-3-ol [Compound 13a]	13.3 ± 0.16	16.6 ± 1.26	16.6 ± 1.26	4.78	51.4 ± 1.47									
COc1cc2c(cc1O)CC[C@@H]1[C@@H]2CC[C@]2(C)[C@@H](OCCCCCCCCn3ccc(=O)n(CCCCCCCCO[C@H]4CC[C@H]5[C@@H]6CCc7cc(O)c(OC)cc7[C@H]6CC[C@]45C)c3=O)CC[C@@H]12 [Compound 14b, 1,3-Bis-{8-[2-Methoxy-3-Hydroxy-Estra-1,3,5(10)-Triene-17β-yl-Oxy]-Octyl}-Uracil]						> 100	> 100	> 100	> 100			73 to 75	No	
COc1cc2c(cc1OCCCCCCn1cc(C)c(=O)n(CCCCCCOc3cc4c(cc3OC)[C@H]3CC[C@]5(C)[C@@H](O)CC[C@H]5[C@@H]3CC4)c1=O)CC[C@@H]1[C@@H]2CC[C@]2(C)[C@@H](O)CC[C@@H]12 [Compound 21b, 1,3-bis-{6-[2-Methoxy-17β-Hydroxy-Estra-1,3,5(10)-Triene-3-yl-oxy]-Hexyl}-5-Methyl-Uracil]						23.8 ± 1.45	28.4 ± 1.76	28.4 ± 1.76	28.2	~25	> 100	79 to 81		about 4 fold
